Experimental data taken from ChEMBL document CHEMBL2440076, “New triarylpyrazoles as broad-spectrum anticancer agents: design, synthesis, and biological evaluation” (Eur J Med Chem, 2013).

Columns and labels:
Format in all cases: functional
HOP-62 [1] = assay: Growth inhibition of human HOP62 cells assessed as cell growth at 5X10'-9 M after 48 hrs by sulforhodamine B assay; settings: HOP-62, 48 h, read-out: Activity
MDA-MB-231 = assay: Growth inhibition of human MDA-MB-231 cells assessed as cell growth at 5X10'-5 M after 48 hrs by sulforhodamine B assay; settings: MDA-MB-231, 48 h, read-out: Activity
RPMI-8226 = assay: Growth inhibition of human RPMI8226 cells assessed as cell growth at 5X10'-8 M after 48 hrs by sulforhodamine B assay; settings: RPMI-8226, 48 h, read-out: Activity
TK-10 [2] = assay: Growth inhibition of human TK10 cells assessed as cell growth at 5X10'-6 M after 48 hrs by sulforhodamine B assay; settings: TK-10, 48 h, read-out: Activity
[3] = Growth inhibition of human HCC2998 cells assessed as cell growth at 5X10'-7 M after 48 hrs by sulforhodamine B assay; settings: HCC 2998, 48 h, read-out: Activity
SF-295 = assay: Growth inhibition of human SF295 cells assessed as cell growth at 5X10'-7 M after 48 hrs by sulforhodamine B assay; settings: SF-295, 48 h, read-out: Activity
786-0 = assay: Growth inhibition of human 786-0 cells assessed as cell growth at 5X10'-8 M after 48 hrs by sulforhodamine B assay; settings: 786-0, 48 h, read-out: Activity
NCI-H460 [4] = assay: Growth inhibition of human NCI-H460 cells assessed as cell growth at 5X10'-7 M after 48 hrs by sulforhodamine B assay; settings: NCI-H460, 48 h, read-out: Activity
RXF 393 = assay: Growth inhibition of human RXF393 cells assessed as cell growth at 5X10'-5 M after 48 hrs by sulforhodamine B assay; settings: RXF 393, 48 h, read-out: Activity
A498 = assay: Growth inhibition of human A498 cells assessed as cell growth at 5X10'-5 M after 48 hrs by sulforhodamine B assay; settings: A498, 48 h, read-out: Activity
TK-10 [5] = assay: Growth inhibition of human TK10 cells assessed as cell growth at 5X10'-7 M after 48 hrs by sulforhodamine B assay; settings: TK-10, 48 h, read-out: Activity
SNB-75 = assay: Growth inhibition of human SNB75 cells assessed as cell growth at 5X10'-7 M after 48 hrs by sulforhodamine B assay; settings: SNB-75, 48 h, read-out: Activity
NCI-H460 [6] = assay: Growth inhibition of human NCI-H460 cells assessed as cell growth at 5X10'-5 M after 48 hrs by sulforhodamine B assay; settings: NCI-H460, 48 h, read-out: Activity
CCRF-CEM = assay: Growth inhibition of human CCRF-CEM cells assessed as cell growth at 5X10'-7 M after 48 hrs by sulforhodamine B assay; settings: read-out: Activity
SNB-19 = assay: Growth inhibition of human SNB19 cells assessed as cell growth at 5X10'-7 M after 48 hrs by sulforhodamine B assay; settings: SNB-19, 48 h, read-out: Activity
NCI-H23 = assay: Growth inhibition of human NCI-H23 cells assessed as cell growth at 5X10'-8 M after 48 hrs by sulforhodamine B assay; settings: NCI-H23, 48 h, read-out: Activity
HOP-62 [7] = assay: Growth inhibition of human HOP62 cells assessed as cell growth at 5X10'-6 M after 48 hrs by sulforhodamine B assay; settings: HOP-62, 48 h, read-out: Activity
COLO 205 = assay: Growth inhibition of human COLO205 cells assessed as cell growth at 5X10'-9 M after 48 hrs by sulforhodamine B assay; settings: COLO 205, 48 h, read-out: Activity
T47D [8] = assay: Growth inhibition of human T47D cells assessed as cell growth at 5X10'-9 M after 48 hrs by sulforhodamine B assay; settings: read-out: Activity
SK-MEL-28 = assay: Growth inhibition of human SK-MEL-28 cells assessed as cell growth at 5X10'-8 M after 48 hrs by sulforhodamine B assay; settings: SK-MEL-28, 48 h, read-out: Activity
MDA-MB-468 = assay: Growth inhibition of human MDA-MB-468 cells assessed as cell growth at 5X10'-8 M after 48 hrs by sulforhodamine B assay; settings: MDA-MB-468, 48 h, read-out: Activity
HCT-116 = assay: Growth inhibition of human HCT116 cells assessed as cell growth at 5X10'-8 M after 48 hrs by sulforhodamine B assay; settings: HCT-116, 48 h, read-out: Activity
NCI-H226 = assay: Growth inhibition of human NCI-H226 cells assessed as cell growth at 5X10'-7 M after 48 hrs by sulforhodamine B assay; settings: NCI-H226, 48 h, read-out: Activity
NCI-H322M = assay: Growth inhibition of human NCI-H322M cells assessed as cell growth at 5X10'-5 M after 48 hrs by sulforhodamine B assay; settings: read-out: Activity
SR = assay: Growth inhibition of human SR cells assessed as cell growth at 5X10'-7 M after 48 hrs by sulforhodamine B assay; settings: read-out: Activity
A549 = assay: Growth inhibition of human A549/ATCC cells assessed as cell growth at 5X10'-7 M after 48 hrs by sulforhodamine B assay; settings: A549, 48 h, read-out: Activity
T47D [9] = assay: Growth inhibition of human T47D cells assessed as cell growth at 5X10'-7 M after 48 hrs by sulforhodamine B assay; settings: read-out: Activity
IGROV-1 = assay: Growth inhibition of human IGROV1 cells assessed as cell growth at 5X10'-8 M after 48 hrs by sulforhodamine B assay; settings: IGROV-1, 48 h, read-out: Activity
LOX IMVI = assay: Growth inhibition of human LOXIMVI cells assessed as cell growth at 5X10'-6 M after 48 hrs by sulforhodamine B assay; settings: read-out: Activity
OVCAR-8 = assay: Growth inhibition of human OVCAR8 cells assessed as cell growth at 5X10'-6 M after 48 hrs by sulforhodamine B assay; settings: OVCAR-8, 48 h, read-out: Activity
NCI-H522 = assay: Growth inhibition of human NCI-H522 cells assessed as cell growth at 5X10'-5 M after 48 hrs by sulforhodamine B assay; settings: NCI-H522, 48 h, read-out: Activity
SK-MEL-2 = assay: Growth inhibition of human SK-MEL-2 cells assessed as cell growth at 5X10'-5 M after 48 hrs by sulforhodamine B assay; settings: SK-MEL-2, 48 h, read-out: Activity
PC-3 = assay: Growth inhibition of human PC3 cells assessed as cell growth at 5X10'-6 M after 48 hrs by sulforhodamine B assay; settings: PC-3, 48 h, read-out: Activity
U-251 = assay: Growth inhibition of human U251 cells assessed as cell growth at 5X10'-6 M after 48 hrs by sulforhodamine B assay; settings: U-251, 48 h, read-out: Activity
T47D [10] = assay: Growth inhibition of human T47D cells assessed as cell growth at 5X10'-5 M after 48 hrs by sulforhodamine B assay; settings: read-out: Activity
ACHN = assay: Growth inhibition of human ACHN cells assessed as cell growth at 5X10'-7 M after 48 hrs by sulforhodamine B assay; settings: read-out: Activity

SMILES | growth at 0.005 µM (HOP-62 [1]) [%] | growth at 50 µM (MDA-MB-231) [%] | growth at 0.05 µM (RPMI-8226) [%] | growth at 5 µM (TK-10 [2]) [%] | growth at 0.5 µM [3] [%] | growth at 0.5 µM (SF-295) [%] | growth at 0.05 µM (786-0) [%] | growth at 0.5 µM (NCI-H460 [4]) [%] | growth at 50 µM (RXF 393) [%] | growth at 50 µM (A498) [%] | growth at 0.5 µM (TK-10 [5]) [%] | growth at 0.5 µM (SNB-75) [%] | growth at 50 µM (NCI-H460 [6]) [%] | growth at 0.5 µM (CCRF-CEM) [%] | growth at 0.5 µM (SNB-19) [%] | growth at 0.05 µM (NCI-H23) [%] | growth at 5 µM (HOP-62 [7]) [%] | growth at 0.005 µM (COLO 205) [%] | growth at 0.005 µM (T47D [8]) [%] | growth at 0.05 µM (SK-MEL-28) [%] | also measured
O=C(Nc1cccc(-n2cc(-c3ccncc3)c(-c3ccc(Cl)c(O)c3)n2)c1)Nc1cc(C(F)(F)F)cc(C(F)(F)F)c1 | 95 | -72 | 95 | -13 | 92 | 61 | 99 | 45 | -79 | -95 | 75 | 81 | -78 | 62 | 64 | 99 | -64 | 105 | 97 | 95 | growth at 0.05 µM (MDA-MB-468): 85%; growth at 0.05 µM (HCT-116): 102%; growth at 0.5 µM (NCI-H226): 79%; growth at 50 µM (NCI-H322M): -75%; growth at 0.5 µM (SR): 72%; growth at 0.5 µM (A549): 37%; growth at 0.5 µM (T47D [9]): 88%; growth at 0.05 µM (IGROV-1): 102%; growth at 5 µM (LOX IMVI): -94%; growth at 5 µM (OVCAR-8): 4%; growth at 50 µM (NCI-H522): -82%; growth at 50 µM (SK-MEL-2): -77%; growth at 5 µM (PC-3): -3%; growth at 5 µM (U-251): -83%; growth at 50 µM (T47D [10]): -25%; growth at 0.5 µM (ACHN): 55%
O=C(Nc1cccc(-n2cc(-c3ccncc3)c(-c3ccc(Cl)c(O)c3)n2)c1)c1ccc(N2CCOCC2)c(C(F)(F)F)c1 | 91 | -8 | 99 | 94 | 108 | 93 | 95 | 98 | -37 | 6 | 97 | 72 | -10 | 81 | 105 | 93 | 67 | 98 | 97 | 102 | growth at 0.05 µM (MDA-MB-468): 93%; growth at 0.05 µM (HCT-116): 97%; growth at 0.5 µM (NCI-H226): 99%; growth at 50 µM (NCI-H322M): 56%; growth at 0.5 µM (SR): 84%; growth at 0.5 µM (A549): 92%; growth at 0.5 µM (T47D [9]): 105%; growth at 0.05 µM (IGROV-1): 95%; growth at 5 µM (LOX IMVI): 10%; growth at 5 µM (OVCAR-8): 41%; growth at 50 µM (NCI-H522): -2%; growth at 50 µM (SK-MEL-2): -36%; growth at 5 µM (PC-3): 29%; growth at 5 µM (U-251): 16%; growth at 50 µM (T47D [10]): 44%; growth at 0.5 µM (ACHN): 85%
